Experimental data taken from the METLIN SMRT retention time set (Domingo-Almenara et al. 2019).

Test: gradient 5% acetonitrile 3 min, to 50% in 2 min, to 85% in 15 min, held 3 min, 100 µL/min
Details: column: Zorbax Extend-C18 2.1 x 50 mm; eluents: water / acetonitrile, 0.1% formic acid
Outline: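 Standards, all pure, were combined into mixtures of ~100 molecules and run at 100 μL/min on a Zorbax Extend-C18 column (2.1 × 50 mm, 1.8 μm) with water and acetonitrile, each containing 0.1% formic acid. A coupled quadrupole time-of-flight mass spectrometer operated in positive and negative ionization mode. Retention time values come from computationally picked adduct peaks, each inspected manually.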

Compound	RP-LC retention time [s]
COC[C@@H]1CN(Cc2cccc(OC)c2OC)C[C@H]1c1ccccn1	656
COCCN1C(=O)[C@H]2CN(Cc3ccc(OC(F)(F)F)cc3)C[C@H]2C1=O	694
Fc1ccc(Nc2nc(-c3cccc(Cl)c3)cs2)nc1	1190
CC(C)CCNC(=O)CCCn1c(=O)c2cccn2c2ccccc21	859
Cn1cc(CCN2CCC(C(=O)NCc3ccccc3Cl)CC2)c2cccnc21	617
Cc1cc2c(cc1NC(=O)c1ccco1)n(C)c(=O)n2C	635
CCN1C(=O)C(C)(C(=O)Nc2ccccc2C)Oc2cccnc21 (stereo not drawn)	876
CC1=NS(=O)(=O)N(Cc2ccccc2)C=C1C(=O)OCc1ccc(Cl)cc1	1160
O=C(CN1CC=C(c2cnn(-c3ccccc3)c2)CC1)N1CCN(c2ccccn2)CC1	567
CCN1CCN(c2ccc(-c3nc(-c4cccc(F)c4)no3)cn2)CC1	698
COCc1noc(C2CCCCN2C(=O)Cc2c(C)noc2C)n1 (stereo not drawn)	673
Cc1cccc(-n2c(=O)c3sccc3n(Cc3nc(-c4ccc(F)c(Cl)c4)no3)c2=O)c1	1100
Cc1cc2c(cc1S(=O)(=O)N1CCCC1C(=O)NCc1ccccc1)OCC(=O)N2 (stereo not drawn)	721
COC(=O)C1=C(C)N(C(C)C)C(=O)C1(NC(=O)c1cccc(OC)c1)C(F)(F)F (stereo not drawn)	917
O=C(NCc1ccccn1)c1nnn(Cc2ccc(Cl)cc2)c1-n1cccc1	760
Cc1cc(C(=O)Nc2ccc(-c3nc4ccccc4o3)cc2)c(C)o1	1020
CC1=C(c2ccccc2)S(=O)(=O)N=C1N1CCCN(C(=O)NCC(C)C)CC1	768
O=C([C@@H]1C[C@H](F)CN1C(=O)Nc1cccc(C(F)(F)F)c1)N1CCCCC1	804
Cc1ccc2[nH]cc(CCNC(=O)CCC(=O)N3Cc4cccn4-c4ccccc43)c2c1	868
CCN(c1cccc(C)c1)S(=O)(=O)c1ccc2c(c1)N(C(C)=O)CCCS2	986
CCSc1nnc(-c2nn(C)c3c2CN(S(=O)(=O)c2ccc(F)c(C)c2)CC3)n1CC	978

Compound	RP-LC retention time [s]
COc1cc2c(cc1OC)C(C(=O)NCCN(C)C)C(c1ccccc1F)N(C)C2=O (stereo not drawn)	599
O=C(Cn1c(=O)c2cc(-c3cccs3)nn2c2ncccc21)NCc1ccccc1	830
O=C(Nc1ccc2c(c1)OCCO2)N1CCCC1c1nc(CCOCC2CC2)no1 (stereo not drawn)	788
O=C(Cn1cc(C(=O)C(=O)N2CCOCC2)c2ccccc21)NCc1ccc2c(c1)OCCCO2	704
CC(=O)N(C)c1ccc(NS(=O)(=O)c2ccc(C)cc2)c([N+](=O)[O-])c1	742
COc1ccc(-c2noc(Cn3ccn(-c4cccc(Cl)c4)c(=O)c3=O)n2)cc1	866
O=C1C[C@@H](c2ccc(O)c(O)c2)Oc2c1ccc(O[C@@H]1O[C@H](CO)[C@@H](O)[C@H](O)[C@H]1O)c2O	617
CCOC(=O)c1c(C)[nH]c(CCC(=O)NC(C)c2ccc3c(c2)OCCO3)c1C (stereo not drawn)	854
COCCNC(=O)NC1CCN(C2=NS(=O)(=O)C(c3cccc(Cl)c3)=C2C)CC1	718
COc1ccc2c(CCNC(=O)c3cccs3)c[nH]c2c1	764
O=C(CC1CCN(C(=O)NC2CCCC2)CC1)N1CCCCC1	695
CCc1cccc(C)c1Nc1c(-c2ccc(OC)cc2)nc2ncccn12	788
O=C(NC1CC1)c1ccc2c(c1)CCN2C(=O)C1CCCC1	948
Cc1cc(-c2nnc(-c3ccc(F)cc3)o2)c(C)n1CC(=O)NC1CCCC1	908
C=CCN1C(=O)COc2ccc(-c3nc(NC(=O)c4cccc(C)c4)sc3C)cc21	1110
Cc1oc2ncnc(N3CCCC(C(=O)NCc4cccc(Cl)c4)C3)c2c1C (stereo not drawn)	920
CCc1ccc(CNC(=O)Cn2c(C)nc3onc(CC)c3c2=O)cc1	885
O=C(Nc1ccc(F)c(Cl)c1)c1cn2c(n1)CSCC2	807
O=C(NCc1cccs1)C1CN(C(=O)c2ccc(F)c(F)c2)C1	688
CCOc1ccc2nc(C(=O)NCCN3CCc4ccccc4C3)cn2n1	577

Second part, the compound after the results:

RP-LC retention time [s]	Compound
737	COc1ncc(C(=O)NCc2ccccc2Cl)cn1
759	CCN1C(=O)COc2ccc(-c3nc(NC(C)=O)sc3C)cc21
650	CCCNC(=O)CCNc1c(-c2cccc(F)c2)nc2cnccn12
714	CCOc1ccc(S(=O)(=O)N2CCCC(C(=O)NCCO)C2)cc1C (stereo not drawn)
873	O=C(NC1CCCC1)c1ccc2c(c1)N(Cc1ccccc1)C(=O)CO2
1000	Cc1ccc(F)cc1S(=O)(=O)N1CCc2c(c(-c3nnc(-c4ccc(F)cc4)o3)nn2C)C1
729	O=C(NCc1csc(C2CCN(C(=O)c3ccc(F)cc3F)CC2)n1)C1CCC1
698	CNC(=O)c1noc([C@@H]2CC(F)(F)CN2C(=O)C2CC=CC2)n1
749	COc1cccc(C(=O)N2CCC3(C2)C(=O)N(C)c2ccccc23)c1OC (stereo not drawn)
945	Cc1ccc(NC(=O)C2CCN(S(C)(=O)=O)c3cc(C)ccc3O2)c(C)c1 (stereo not drawn)
822	CCOC(=O)C1C(=O)C=C(c2cccc(NS(C)(=O)=O)c2)CC1c1cccs1 (stereo not drawn)
864	O=C(c1cn(-c2ccc(-c3nc(C4CC4)no3)cn2)cn1)N1CCCCC1
1120	COc1c(C(=O)NCc2ccc(C)o2)sc2ccc(Cl)cc12
765	COc1ccc(-c2noc(NCC3CCCO3)n2)cc1 (stereo not drawn)
1240	CCCOc1nc2ccccc2nc1N1CCCC(C(=O)NCc2ccc(C)cc2)C1 (stereo not drawn)
762	COc1ccc(CCS(=O)(=O)Nc2ccc3c(c2)N(C(=O)C2CCCO2)CC3)cc1 (stereo not drawn)
688	O=C(NCCC1CCN(C(=O)Nc2cc(F)cc(F)c2)CC1)c1ccsc1
888	Cc1cccc(N(C)C(=O)Cn2c(=O)n(-c3ccc(F)cc3)c(=O)c3c2cc(C)n3C)c1
796	CCCN1C(=O)c2c(C(=O)NCc3ccc(F)cc3)ncn2CC1(C)C(=O)NC1CCCC1 (stereo not drawn)
1250	CC1CCN(c2nc3c(c(=O)n(C)c(=O)n3C)n2Cc2ccc(Br)cc2)CC1
632	CC(C)n1c(CCNC(=O)c2c(F)cccc2F)nc2cccnc21
742	CC(C)CC(=O)NC1CCN(c2ccc(F)cc2)C1=O (stereo not drawn)
856	Cc1cccc(OCC(=O)Nc2ccc3c(c2)Sc2ncccc2C(=O)N3C)c1
1250	O=C(Nc1cccc(Br)c1)C1CCCN(c2ncc(-c3ccccc3)cn2)C1 (stereo not drawn)

RP-LC retention time [s]	Compound
870	CCC(C(=O)NCc1ccc(C)o1)n1nc(C)c2nn(-c3ccccc3)c(C)c2c1=O (stereo not drawn)
1010	Cc1ccc(NC(=O)CN2C(=O)CCc3cc(S(=O)(=O)N4CCCCC4C)ccc32)cc1F (stereo not drawn)
783	CCc1nc2onc(C)c2c(=O)n1CC(=O)NCc1ccc(F)cc1
920	COc1ccc(-c2noc(-c3nc(C)no3)n2)cc1
808	COc1cc(Nc2nc(C(=O)N3CCCCC3)cc3occc23)cc(OC)c1OC
977	Cc1nc2cc(-c3noc(-c4cccc(C#N)c4)n3)ccc2o1
965	Cc1ccc(CCNC(=O)CN2C(=O)CSc3cccn3-c3ccccc32)cc1
904	CC(C)c1nnc(-c2ccc(S(=O)(=O)NC3CCCCC3)o2)o1
648	Cn1nc(C(=O)N2CCCC(C(=O)NC3CC3)C2)c2c1CCN(C(=O)c1ccccc1Cl)C2 (stereo not drawn)
688	Cc1nc(NC(=O)c2ccccc2)nc2cc3c(cc12)OCO3
814	COc1ccc(-c2cc(C(=O)NCCc3c[nH]c4ccccc34)[nH]n2)cc1
670	CC(=O)c1ccc(NC(=O)C2CC(=O)N(c3ccc4c(c3)CCN4C(C)=O)C2)cc1 (stereo not drawn)
664	COc1ccc(OC)c(NC(=O)N2CCN(Cc3cn(C)c4ccccc34)CC2)c1
577	O=C(CC1CCCC1)N1CCCC(c2nc(-c3ccncc3)n[nH]2)C1 (stereo not drawn)
896	O=C(Cn1nc2c(N3CCc4ccccc4C3)nccn2c1=O)Nc1ccccc1Cl
913	COc1ccc(C2(C(=O)N3CCC(Oc4ccc(-c5noc(C)n5)cc4)C3)CC2)cc1 (stereo not drawn)
935	Cc1ccc(Cn2c(=O)c(N3CCN(C(=O)NCC4CCCO4)CC3)nc3cccnc32)cc1 (stereo not drawn)
931	COc1ccc(Cl)cc1NC(=O)NC1CCN(c2ccc(C)cc2)C1=O (stereo not drawn)
1030	CC1CN(c2nc(-c3ccc([N+](=O)[O-])cc3)nc3ccccc23)CC(C)O1 (stereo not drawn)
701	CCOC(=O)c1ccc(Nc2c(C(=O)N3CCCCC3CC)cnc3nc(C)ccc23)cc1 (stereo not drawn)
1160	O=S(=O)(c1cccc(-c2nnc(-c3ccc(Cl)cc3)o2)c1)N1CCCCC1
602	Cc1noc(C)c1Cc1ccc(C(=O)N(C)C2CCc3nnc(C)n3CC2)o1 (stereo not drawn)
690	CCOCCCNC(=O)NC1CCN(c2nc3ccccc3n(C)c2=O)CC1
